{"source": "patent US10946024B2", "about": "“Method for treating cancer” (Epizyme, Inc., priority 2014, dated 2021)", "key": {"[1]": {"test_system": "H3K27me3 in HS-SY-II xenograft", "assay": "H3K27me3 by ELISA in HS-SY-II xenograft tumors harvested on Day 28 (second study)", "type": "in vivo, mice", "details": "Day 28, 3 h after the last dose", "protocol": "FIGS. 10A to 10C show mean in vivo tumor volumes for athymic nude mice bearing HS-SY-II xenografts. In a first study, mice were dosed with either vehicle (oral for 28 days or iv on Day 1 and Day 22), Compound A (oral: 125 mg/kg, 250 mg/kg, or 500 mg/kg for 28 days), or Doxorubicin (iv: 10 mg/kg, Day 1 and Day 22); tumor volumes were measured twice a week (FIGS. 10A and 10B). In a second study, mice were dosed with either vehicle (oral for 28 days), Compound A (oral: 250 mg/kg or 500 mg/kg for 28 days), Doxorubicin (iv: 10 mg/kg on Day 1 and Day 22), or a combination of Doxorubicin (iv: 10 mg/kg on Day 1 and Day 22) and Compound A (oral: 250 mg/kg for 28 days) (FIG. 10C). Tumors from animals of the second study were harvested on Day 28 (3 h after the last dose) and subjected to H3K27me3 analysis by ELISA (FIG. 10D) or IHC for the proliferation marker Ki67 (FIG. 10E).\nFor FIG. 10D, tumors were snap-frozen in liquid nitrogen. […] Histones were quantified using the BCA protein assay (23225, Pierce). […] Subsequently, the developed colors in the wells were measured using a plate spectrophotometer (SpectraMax 250, Molecular Devices) at 450 nm (reference wavelength 650 nm). The H3K27me3 levels were adjusted to total histone H3, and expressed as fold changes to vehicle control. […] Histones were extracted and quantified, and the levels of H3K27me3 were analyzed as described above. […]"}, "[2]": {"test_system": "synovial sarcoma PDX (CTG-0771, CTG-0331)", "assay": "Tumor volume in mice bearing patient-derived xenografts (PDX) of synovial sarcoma, 35 days", "type": "in vivo", "details": "oral 125, 250 or 500/400 mg/kg for 35 days", "protocol": "FIGS. 11A and 11C show mean in vivo tumor volumes for athymic nude mice bearing one of two different PDX of synovial sarcoma tumors. FIGS. 11B and 11D show percent survival for mice bearing a PDX. Mice were dosed with either vehicle (oral for 35 days), Compound A (oral: 125 mg/kg, 250 mg/kg, or 500/400 mg/kg for 35 days) or Doxorubicin (iv: 3 mg/kg, once a week for 3 weeks). FIGS. 11A and 11B show data from mice bearing PDX from high-grade spindle cell sarcoma. FIGS. 11C and 11D show data from mice bearing PDX.\nImmunocompromised female mice (Taconic; NCr nude) were implanted unilaterally in the flank region with tumor fragments (5 mm×5 mm×5 mm) harvested from donor animals, each implanted from a specific passage lot (CTG-0331 and CTG-0771 at P4). When tumors reached approximately 100-300 mm^3, animals were matched by tumor volume into treatment and control groups and dosing initiated. Vehicle (0.5% NaCMC plus 0.1% Tween 80 in water) or Compound A (500 mg/kg for CTG-0331 and 500 mg/kg decreased to 400 mg/kg on Day 17 for CTG-0771) was administered orally BID at a dose volume of 10 μL/g for 35 days. Tumor size was measured twice weekly. On Day 35, up to 5 mice with the largest tumor burden were euthanized for tumor collection 3 hours after final dose, and flash frozen. […]"}, "[3]": {"test_system": "CDKN2A expression in HS-SY-II xenograft", "assay": "Gene expression changes in vivo in HS-SY-II xenograft by RT-PCR", "parameters": "species or system mice", "details": "500 mg/kg oral twice daily for 7 days", "protocol": "Tumor samples were collected at approximately 3 hours after the last dose from mice used in analysis for PK values and PD alterations."}}, "data": [{"smiles": "CCN(c1cc(-c2ccc(CN3CCOCC3)cc2)cc(C(=O)NCc2c(C)cc(C)[nH]c2=O)c1C)C1CCOCC1", "note": "[Compound A]", "values": [{"measurement": "H3K27me3 levels in tumors", "setting": "[1]", "value": "significantly reduced"}, {"measurement": "tumor volume", "setting": "[2]", "value": "dose-related tumor volume decrease"}, {"measurement": "CDKN2A expression in tumor", "setting": "[3]", "value": "significantly upregulated"}]}]}
